Source: patent US5424290A, “Biologically active peptides and uses therefor” (Magainin Pharmaceuticals Inc., priority 1992, dated 1995)
Residues, ends and D or L forms follow the SMILES beside them.

How the values were obtained:
Type in all cases: cell-based
[1] = tested on: P. aeruginosa strain ATCC 27853; assay: Minimal Inhibitory Concentration, microtiter broth dilution antibacterial assay; conditions: P. aeruginosa ATCC 27853; Mueller Hinton broth; 16-20 hours at 37° C.; lowest concentration giving a clear well
Source text: (§1) Table I, which follows, indicates the Minimal Inhibitory Concentration (MIC) in μg/ml of Peptides (SEQ ID NO:1) through (SEQ ID NO:4), (SEQ ID NO:6) through (SEQ ID NO:13), (SEQ ID NO:16), (SEQ ID NO:20), (SEQ ID NO:21) and (SEQ ID NO:23) against S. aureus strain ATCC 25923, P. aeruginosa strain ATCC 27853, E. coli strain 25922, and Candida albicans. The procedure for the antibacterial assay is based upon the guidelines of the National Committee for Clinical Laboratory Standards, Document M7-T2, Volume 8, No. 8, 1988. Stock solutions of the peptides hereinabove mentioned are prepared at a concentration of 512 μg/ml in sterile deionized distilled water and stored at […]. Each peptide is a C-terminal amide and may or may not be acetylated at the N-terminus. An acetyl group at the N-terminus is indicated by an X. The stock peptide solution is diluted in serial dilutions (1:2) down the wells of a microtiter plate so that the final concentrations of peptides in the wells are 0.25, 0.50, 1, 2, 4, 8, 16, 32, 64, 128, and 256 μg/ml. 1-5×10^5 CFUs/ml of either S. aureus ATCC 25923, E. coli ATCC 25922, P. aeruginosa ATCC 27853, or Candida albicans were added to the wells in full strength Mueller Hinton broth (BBL 11443) from a mid-log culture. The inoculum is standardized spectrophotometrically at 600 nm and is verified by colony counts. The plates are incubated for 16-20 hours at 37° C., and the minimal inhibitory concentration (MIC) for each peptide is determined. Minimal inhibitory concentration is defined as the lowest concentration of peptide which produces a clear well in the microtiter plate.

[2] = tested on: S. aureus strain ATCC 25923; assay: as above; conditions: S. aureus ATCC 25923; Mueller Hinton broth; 16-20 hours at 37° C.; lowest concentration giving a clear well
Source text: as §1

[3] = tested on: Candida albicans; assay: Minimal Inhibitory Concentration, microtiter broth dilution assay; conditions: Mueller Hinton broth, 16-20 hours at 37° C., lowest concentration giving a clear well
Source text: as §1

| SMILES | Minimal Inhibitory Concentration P. aeruginosa [1] | Minimal Inhibitory Concentration S. aureus [2] | Minimal Inhibitory Concentration C. albicans [3] |
| --- | --- | --- | --- |
| CC[C@H](C)[C@H](N)C(=O)NCC(=O)N[C@@H](CCCCN)C(=O)N[C@@H](Cc1ccccc1)C(=O)N[C@@H](CC(C)C)C(=O)N[C@@H](CCCCN)C(=O)N[C@@H](CCCCN)C(=O)N[C@@H](C)C(=O)N[C@@H](CCCCN)C(=O)N[C@@H](CCCCN)C(=O)N[C@@H](Cc1ccccc1)C(=O)NCC(=O)N[C@@H](CCCCN)C(=O)N[C@@H](CCCCN)C(=O)N[C@@H](Cc1ccccc1)C(=O)N[C@@H](CCCCN)C(=O)N[C@@H](CCCCN)C(=O)N[C@@H](CCC(=O)O)C(=O)N[C@H](C(=O)N[C@@H](CCCCN)C(=O)N[C@@H](CCCCN)C(N)=O)[C@@H](C)CC [(SEQ ID NO: 3)-NH2] (H-IGKFLKKAKKFGKKFKKEIKK-NH2) | 16 µg/mL | 32 µg/mL | – |
| CC[C@H](C)[C@H](NC(=O)CN)C(=O)NCC(=O)N[C@@H](CCCCN)C(=O)N[C@@H](Cc1ccccc1)C(=O)N[C@@H](CC(C)C)C(=O)N[C@@H](CCCCN)C(=O)N[C@@H](CCCCN)C(=O)N[C@@H](C)C(=O)N[C@@H](CCCCN)C(=O)N[C@@H](CCCCN)C(=O)N[C@@H](Cc1ccccc1)C(=O)NCC(=O)N[C@@H](CCCCN)C(=O)N[C@@H](C)C(=O)N[C@@H](Cc1ccccc1)C(=O)N[C@H](C(=O)N[C@@H](CCCCN)C(=O)N[C@H](C(=O)N[C@@H](CC(C)C)C(=O)N[C@@H](CCCCN)C(=O)N[C@@H](CCCCN)C(=O)N[C@@H](CC(N)=O)C(N)=O)[C@@H](C)CC)C(C)C [(SEQ ID NO: 9)-NH2] (H-GIGKFLKKAKKFGKAFVKILKKN-NH2) | 8 µg/mL | 64 µg/mL | – |
| CC[C@H](C)[C@H](NC(=O)CNC(=O)[C@@H](N)CCSC)C(=O)NCC(=O)N[C@@H](CCCCN)C(=O)N[C@@H](Cc1ccccc1)C(=O)N[C@@H](CC(C)C)C(=O)N[C@@H](CCCCN)C(=O)N[C@@H](CCCCN)C(=O)N[C@@H](C)C(=O)N[C@@H](CCCCN)C(=O)N[C@@H](CCCCN)C(=O)N[C@@H](Cc1ccccc1)C(=O)NCC(=O)N[C@@H](CCCCN)C(=O)N[C@@H](C)C(=O)N[C@@H](Cc1ccccc1)C(=O)N[C@H](C(=O)N[C@@H](CCCCN)C(=O)N[C@H](C(=O)N[C@@H](CC(C)C)C(=O)N[C@@H](CCCCN)C(=O)N[C@@H](CCCCN)C(N)=O)[C@@H](C)CC)C(C)C [(SEQ ID NO: 11)-NH2] (H-MGIGKFLKKAKKFGKAFVKILKK-NH2) | – | 64 µg/mL | 64 µg/mL |
| CC[C@H](C)[C@H](NC(=O)CNC(=O)[C@H](CCCNC(=N)N)NC(=O)[C@@H](N)CCCNC(=N)N)C(=O)NCC(=O)N[C@@H](CCCCN)C(=O)N[C@@H](Cc1ccccc1)C(=O)N[C@@H](CC(C)C)C(=O)N[C@@H](CCCCN)C(=O)N[C@@H](CCCCN)C(=O)N[C@@H](C)C(=O)N[C@@H](CCCCN)C(=O)N[C@@H](CCCCN)C(=O)N[C@@H](Cc1ccccc1)C(=O)NCC(=O)N[C@@H](CCCCN)C(=O)N[C@@H](C)C(=O)N[C@@H](Cc1ccccc1)C(=O)N[C@H](C(=O)N[C@@H](CCCCN)C(=O)N[C@H](C(=O)N[C@@H](CC(C)C)C(=O)N[C@@H](CCCCN)C(=O)N[C@@H](CCCCN)C(N)=O)[C@@H](C)CC)C(C)C [(SEQ ID NO: 12)-NH2] (H-RRGIGKFLKKAKKFGKAFVKILKK-NH2) | 32 µg/mL | – | 128 µg/mL |
| CC[C@H](C)[C@H](NC(=O)CN)C(=O)NCC(=O)N[C@@H](CCCCN)C(=O)N[C@@H](Cc1ccccc1)C(=O)N[C@@H](CC(C)C)C(=O)N[C@@H](CCCCN)C(=O)N[C@@H](CCCCN)C(=O)N[C@@H](C)C(=O)N[C@@H](CCCCN)C(=O)N[C@@H](CCCCN)C(=O)N[C@@H](Cc1ccccc1)C(=O)NCC(=O)N[C@@H](CCCCN)C(=O)N[C@@H](C)C(=O)N[C@@H](Cc1ccccc1)C(=O)N[C@H](C(=O)N[C@@H](CCCCN)C(=O)N[C@H](C(=O)N[C@@H](CC(C)C)C(=O)N[C@@H](CCCCN)C(=O)N[C@@H](CCCCN)C(N)=O)[C@@H](C)CC)[C@@H](C)CC [(SEQ ID NO: 19)-NH2] (H-GIGKFLKKAKKFGKAFIKILKK-NH2) | 8 µg/mL | 8 µg/mL | – |
